Test results published in PubChem BioAssay AID1963450 (Molecular Pharmacology Branch, DTP, NCI, 2024).
Each block holds one compound with its values, some of them ahead of it.

System: 556581-035-R-J1-PDC complex spheroid growth
Assay: Anticancer human tumor 556581-035-R-J1-PDC patient-derived ovarian carcinoma cell line growth inhibition [Asc]
Details: for IC50: curve of first compound; for viability, T/C: stronger effect = lower value
Method in brief: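 Concentration series start at each agent's clinical Cmax, or at 10 microM when none is established, and drop in half-log steps; agents are applied alone or together to complex spheroids built with HUVEC and hMSC.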
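Note: spheroids exposed to agents for 7 days before viability read.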

IC50 (second compound 0.1 µM): 92.9 nM
IC50 (second compound 0.316 µM): 55.4 nM
IC50 (second compound 1 µM): 44 nM
IC50 (second compound 3.16 µM): 56.6 nM
IC50 (second compound 10 µM): 4.93 nM
SMILES: O=C(c1ccc(F)c(F)c1Nc1ccc(I)cc1F)N1CC(O)([C@@H]2CCCCN2)C1 + Cc1c(S(C)(=O)=O)c(-c2cc(F)cc(N3CCN(c4ccc(NS(=O)(=O)c5ccc(NC(CCN6CCC(C(=O)OCCCP(=O)(O)O)CC6)CSc6ccccc6)c(S(=O)(=O)C(F)(F)F)c5)cc4)CC3)c2)c(-c2ccc(Cl)cc2)n1C(C)C
viability, T/C (second compound 0.1 µM, first compound 0.00316 µM): 73%
viability, T/C (second compound 0.1 µM, first compound 0.01 µM): 66.8%
viability, T/C (second compound 0.1 µM, first compound 0.0316 µM): 72.6%
viability, T/C (second compound 0.1 µM, first compound 0.1 µM): 44.9%
viability, T/C (second compound 0.1 µM, first compound 0.316 µM): 23.8%
viability, T/C (second compound 0.1 µM, first compound 1 µM): 4.45%
viability, T/C (second compound 0.316 µM, first compound 0.00316 µM): 59.6%
viability, T/C (second compound 0.316 µM, first compound 0.01 µM): 58.8%
viability, T/C (second compound 0.316 µM, first compound 0.0316 µM): 61.6%
viability, T/C (second compound 0.316 µM, first compound 0.1 µM): 39.4%
viability, T/C (second compound 0.316 µM, first compound 0.316 µM): 21.6%
viability, T/C (second compound 0.316 µM, first compound 1 µM): 25.9%
viability, T/C (second compound 1 µM, first compound 0.00316 µM): 70%
viability, T/C (second compound 1 µM, first compound 0.01 µM): 73.7%
viability, T/C (second compound 1 µM, first compound 0.0316 µM): 57.1%
viability, T/C (second compound 1 µM, first compound 0.1 µM): 29.5%
viability, T/C (second compound 1 µM, first compound 0.316 µM): 8.66%
viability, T/C (second compound 1 µM, first compound 1 µM): 1.82%
viability, T/C (second compound 3.16 µM, first compound 0.00316 µM): 67.7%
viability, T/C (second compound 3.16 µM, first compound 0.01 µM): 54.5%
viability, T/C (second compound 3.16 µM, first compound 0.0316 µM): 57.4%
viability, T/C (second compound 3.16 µM, first compound 0.1 µM): 45.5%
viability, T/C (second compound 3.16 µM, first compound 0.316 µM): 22.3%
viability, T/C (second compound 3.16 µM, first compound 1 µM): 4.54%
viability, T/C (second compound 10 µM, first compound 0.00316 µM): 49.6%
viability, T/C (second compound 10 µM, first compound 0.01 µM): 51.9%
viability, T/C (second compound 10 µM, first compound 0.0316 µM): 40.5%
viability, T/C (second compound 10 µM, first compound 0.1 µM): 15.2%
viability, T/C (second compound 10 µM, first compound 0.316 µM): 38.4%
viability, T/C (second compound 10 µM, first compound 1 µM): 16%

IC50 (second compound 0.03 µM): 209 nM
IC50 (second compound 0.0949 µM): 208 nM
IC50 (second compound 0.3 µM): 181 nM
IC50 (second compound 0.949 µM): 188 nM
IC50 (second compound 3 µM): 92.1 nM
SMILES: O=C(c1ccc(F)c(F)c1Nc1ccc(I)cc1F)N1CC(O)([C@@H]2CCCCN2)C1 + CCN1C(C(=O)NC23CCC(C(=O)O)(CC2)CC3)C(c2cccc(Cl)c2F)C2(C(=O)Nc3cc(Cl)ccc32)C12CCCCC2
viability, T/C (second compound 0.03 µM, first compound 0.00316 µM): 118%
viability, T/C (second compound 0.03 µM, first compound 0.01 µM): 99.4%
viability, T/C (second compound 0.03 µM, first compound 0.0316 µM): 97.7%
viability, T/C (second compound 0.03 µM, first compound 0.1 µM): 72.9%
viability, T/C (second compound 0.03 µM, first compound 0.316 µM): 35.9%
viability, T/C (second compound 0.03 µM, first compound 1 µM): 10.6%
viability, T/C (second compound 0.0949 µM, first compound 0.00316 µM): 108%
viability, T/C (second compound 0.0949 µM, first compound 0.01 µM): 114%
viability, T/C (second compound 0.0949 µM, first compound 0.0316 µM): 95.8%
viability, T/C (second compound 0.0949 µM, first compound 0.1 µM): 85.9%
viability, T/C (second compound 0.0949 µM, first compound 0.316 µM): 29.6%
viability, T/C (second compound 0.0949 µM, first compound 1 µM): 10.4%
viability, T/C (second compound 0.3 µM, first compound 0.00316 µM): 106%
viability, T/C (second compound 0.3 µM, first compound 0.01 µM): 104%
viability, T/C (second compound 0.3 µM, first compound 0.0316 µM): 127%
viability, T/C (second compound 0.3 µM, first compound 0.1 µM): 73.5%
viability, T/C (second compound 0.3 µM, first compound 0.316 µM): 29.8%
viability, T/C (second compound 0.3 µM, first compound 1 µM): 9.99%
viability, T/C (second compound 0.949 µM, first compound 0.00316 µM): 99.1%
viability, T/C (second compound 0.949 µM, first compound 0.01 µM): 119%
viability, T/C (second compound 0.949 µM, first compound 0.0316 µM): 100%
viability, T/C (second compound 0.949 µM, first compound 0.1 µM): 78.1%
viability, T/C (second compound 0.949 µM, first compound 0.316 µM): 26.8%
viability, T/C (second compound 0.949 µM, first compound 1 µM): 12.4%
viability, T/C (second compound 3 µM, first compound 0.00316 µM): 99.9%
viability, T/C (second compound 3 µM, first compound 0.01 µM): 97.3%
viability, T/C (second compound 3 µM, first compound 0.0316 µM): 86.3%
viability, T/C (second compound 3 µM, first compound 0.1 µM): 47.3%
viability, T/C (second compound 3 µM, first compound 0.316 µM): 17.2%
viability, T/C (second compound 3 µM, first compound 1 µM): 11.4%

IC50 (second compound 0.03 µM): > 300 nM
IC50 (second compound 0.0949 µM): > 300 nM
IC50 (second compound 0.3 µM): > 300 nM
IC50 (second compound 0.949 µM): > 300 nM
IC50 (second compound 3 µM): > 300 nM
SMILES: NC(=O)C(=Cn1cnc(-c2cc(C(F)(F)F)cc(C(F)(F)F)c2)n1)c1cncnc1 + CCN1C(C(=O)NC23CCC(C(=O)O)(CC2)CC3)C(c2cccc(Cl)c2F)C2(C(=O)Nc3cc(Cl)ccc32)C12CCCCC2
viability, T/C (second compound 0.03 µM, first compound 0.000949 µM): 81%
viability, T/C (second compound 0.03 µM, first compound 0.003 µM): 96.2%
viability, T/C (second compound 0.03 µM, first compound 0.00949 µM): 87.3%
viability, T/C (second compound 0.03 µM, first compound 0.03 µM): 83.1%
viability, T/C (second compound 0.03 µM, first compound 0.0949 µM): 86.6%
viability, T/C (second compound 0.03 µM, first compound 0.3 µM): 86.6%
viability, T/C (second compound 0.0949 µM, first compound 0.000949 µM): 97.6%
viability, T/C (second compound 0.0949 µM, first compound 0.003 µM): 99.7%
viability, T/C (second compound 0.0949 µM, first compound 0.00949 µM): 92.9%
viability, T/C (second compound 0.0949 µM, first compound 0.03 µM): 86.7%
viability, T/C (second compound 0.0949 µM, first compound 0.0949 µM): 90.8%
viability, T/C (second compound 0.0949 µM, first compound 0.3 µM): 101%
viability, T/C (second compound 0.3 µM, first compound 0.000949 µM): 103%
viability, T/C (second compound 0.3 µM, first compound 0.003 µM): 91.6%
viability, T/C (second compound 0.3 µM, first compound 0.00949 µM): 94.9%
viability, T/C (second compound 0.3 µM, first compound 0.03 µM): 87.3%
viability, T/C (second compound 0.3 µM, first compound 0.0949 µM): 86.7%
viability, T/C (second compound 0.3 µM, first compound 0.3 µM): 97.1%
viability, T/C (second compound 0.949 µM, first compound 0.000949 µM): 88.4%
viability, T/C (second compound 0.949 µM, first compound 0.003 µM): 108%
viability, T/C (second compound 0.949 µM, first compound 0.00949 µM): 92.5%
viability, T/C (second compound 0.949 µM, first compound 0.03 µM): 101%
viability, T/C (second compound 0.949 µM, first compound 0.0949 µM): 90%
viability, T/C (second compound 0.949 µM, first compound 0.3 µM): 91.6%
viability, T/C (second compound 3 µM, first compound 0.000949 µM): 83.5%
viability, T/C (second compound 3 µM, first compound 0.003 µM): 87.9%
viability, T/C (second compound 3 µM, first compound 0.00949 µM): 81.7%
viability, T/C (second compound 3 µM, first compound 0.03 µM): 87.7%
viability, T/C (second compound 3 µM, first compound 0.0949 µM): 78.3%
viability, T/C (second compound 3 µM, first compound 0.3 µM): 61.2%
